Experiment [1] has as its system HIV-1 LTR. Briefly: Tat-activated integrated LTR-CAT reporter assay in HeLa-CD4-LTR cells. The format is cell-based. Here is the method: (§1) Cell lines transfections and assays. Transfections of HeLa cells were performed as previously described (49). HeLa-CD4-LTR (9) cells were grown in DMEM supplemented with 10% FCS and transfected with 20 μg plasmid DNA (prepared using EndoFree plasmid kit, Qiagen, Valencia, Calif.) by calcium phosphate coprecipitation as per manufacturer's instructions (ProFection system, Promega, Madison, Wis.). After 30 minutes at room temperature, the solution was added to the cells (2.5-4×10^5 cells/plate). Twelve hours after transfection, the cells were washed with PBS and fed fresh medium. Forty-eight hours later the cells were harvested, cellular extracts prepared, and CAT assays performed as previously described (49). To control for the effect of transcription factor overexpression on general cellular promoters a reporter construct driven by the beta-actin promoter, pH[…]-actin-luciferase (66), was used in cotransfection and CAT expression normalized for luciferase activity. Other plasmids used have been previously described (2, 49). […] Up to 30 μl of cellular extract (normalized for protein concentration) in a final volume of 130 μl was used for luciferase reactions.
The LTR reporter carried by HeLa-CD4-LTR cell line exists within the native chromatin structure of the genome. […]
For orientation: Reporter assays use an easily measured gene product as a stand-in for the process of interest.

Experiment [2] relates to HIV-1. The settings on record: HeLa cells cotransfected with pNL4-3 (CXCR4) or pYU-2 (CCR5).
Method: For virus production experiments 2×10^4 HeLa cells were transfected with 10 μl of Superfect (Qiagen, Valencia, Calif.) and 2.5-3.0 μg of DNA in a volume of 0.6 ml for 3 hours, washed with PBS, and then grown in 2 ml. Aliquots of culture medium were sampled for detection of HIV-1 p24^gag protein by antigen capture enzyme-linked immunosorbent assay according to the manufacturer's instructions (Coulter Corporation, Hialeah, Fla.).
As these cells support HIV replication but cannot be infected, a measurement of the effect of YY1 on a single round of viral replication can be made.
The influence of YY1 on viral production was assayed by testing of culture supernatant for the presence of the viral protein p24^gag.
The test system of experiment [3] is RCS oligonucleotide (−10 to +27 of HIV-1 LTR). The format is binding.
Experiment [4] relates to HIV-1 LTR. Briefly: Tat-activated, LTR-driven CAT expression, plasmid-based reporter, transient cotransfection. The format is cell-based. Particulars: data not shown. Here is the method:
as §1

Where two headings read alike, the source gives them in different places.

Turning to `CC(/C=C/C(=O)NO)=C\[C@@H](C)C(=O)c1ccc(N(C)C)cc1` [trichostatin-A, reference compound], the “Effect on YY1-mediated repression of integrated LTR-CAT expression” value in experiment [1] (with YY1 transfection, trichostatin-A added to culture medium (data not shown)) is given as “blocked”.

“YY1: cellular transcription factor that binds the RCS and inhibits LTR-driven HIV transcription (SEQ ID NO: 3)”: the “Tat-activated CAT expression from integrated LTR reporter” value in experiment [1] (200 ng pAR-Tat, 2.5 μg CMV expression plasmid, normalized to β-actin-luciferase) was “inhibited Tat-activated CAT activity”. In experiment [2], the “HIV-1 production (p24gag in culture supernatant)” value was “dose-dependent inhibition”. In addition, the “Complex formation with the RCS in EMSA” value is “increasing levels of complex formation” in experiment [3] (20 ng to 100 ng added in the presence of 10 ng of LSF) and “did not form a detectable complex” in experiment [3] (up to 100 ng protein alone). Moreover, the “Tat-activated, LTR-driven CAT expression (plasmid-based reporter)” value in experiment [4] is recorded as “inhibited Tat-activated, LTR-driven CAT expression”.
